{"source": "patent US11672817B2", "about": "“Maltosyl-Isomaltooligosaccharides” (ISOThrive Inc., priority 2016, dated 2023)", "key": {"[1]": {"test_system": "Weissella viridescens NRRL B-1951", "experiment": "W. viridescens culture absorbance (growth) with nisin", "assay_type": "cell-based", "set-up": "key to Corrected ABS 610rs: A600 minus background absorbance taken just after inoculation", "conditions": "for 91516 ABS 610f: final absorbance, uncorrected", "method": "Purified nisin A and Z are commercially available and were acquired from Handary S. A. (Brussels Belgium). Certificates of analysis for each lot indicated purities of 95.2 and 99.6% for nisin A and Z, respectively.\n100 g De-Man, Rogosa and Sharpe (MRS) media was prepared in a 500 mL Erlenmeyer to contain 5.5% solids in deionized water (18.2 MS2, Hydro Service and Supplies, Gaithersburg, Md.). The media was autoclaved (121° C. 15 min), cooled, and inoculated with 1 mL (0.5 mL culture+0.5 mL glycerol, 40%; frozen at −78° C.) of Weissella viridescens NRRL B-1951 (test strain). The culture was incubated at 31° C. overnight (15 Hr).\nThe next day, stock solutions of either nisin A or Z were prepared in deionized water to contain 31.3 and 33.7 μg/g of each peptide.\n(§1) 100 g MRS media was prepared to contain 5.5% solids. Two sets (one set each for nisin A and nisin Z) of eight Hach-type tubes (Kimble Chase 45066-16100) were prepared. Within each set, in order was added 5.00, 4.95, 4.90, 4.75, 4.50, 4.00, 3.50 and 3.00 g MRS media. The tubes were sealed and autoclaved.\n(§2) To each tube was added, of the appropriate nisin stock, 0.00, 0.05, 0.10, 0.25, 0.50, 1.00, 1.50, and 2.00 g. Each tube was inoculated with 0.25 g of late-log W. viridescens NRRL B-1951 culture. The tubes were sealed and the absorbance at 600 nm was quickly measured (Hach DR900). The tubes were segregated by set and incubated at 31° C. overnight (15 Hr).\nEach tube was thoroughly mixed to suspend settled cells and the absorbance was measured again at 600 nm. The final absorbance values for each sample were corrected for their respective background (taken just after inoculation, scattered light from added cells). The corrected absorption values were a measure of W. viridescens growth. The corrected values were plotted against nisin concentration and minimum inhibiting concentration approximated via regression."}, "[2]": {"test_system": "Weissella viridescens NRRL B-1951", "experiment": "HPLC of culture supernatants: consumption of glucose and production of organic acids with nisin", "assay_type": "cell-based", "conditions": "for acetic acid in the fermentation media: MRS media originally contained 7% acetate", "method": "as §1, §2\nEach tube was sampled (1.5 mL conical polypropylene centrifuge tubes) and centrifuged at 10 kRPM for 10 minutes to remove and suspended cells. The resulting supernatants were filtered (0.2 μm nylon), diluted to 0.5% solids, and analyzed by high pressure liquid chromatography (HPLC, Agilent 1100, refractive index detector and BioRad Ainex HPX-87H column) for consumption of glucose and production of organic acids. The following table illustrates the concentration of sugars such as glucose and production of organic acids during the incubation.\nNote that the MRS media originally contained 7% acetate; therefore 7% should be subtracted from the values for acetate in the above table to ascertain the amount of acetate generated during the assay."}}, "note": "No end group written: not given here."}
{"substance": "nisin A (ITSISLCTPGCKTGALMGCNMKTATCHCSIHVSK; not fully specified (residues 2, 5, 33, bridges); also: lantibiotic (thioether rings, dehydrated residues not placed); UniProt P13068 24-57, looked up) [Purified nisin A, commercially available, acquired from Handary S. A; purity 95.2%; bacteriocin peptide]", "values": [{"measurement": "inhibition of bacterial growth", "setting": "[1]", "result": "can effectively inhibit"}, {"measurement": "91516 ABS 610f", "setting": "[1]; nisin A 0.33 μg/g (tube A2)", "result": 1.568}, {"measurement": "91516 ABS 610f", "setting": "[1]; nisin A 0.68 μg/g (tube A3)", "result": 1.531}, {"measurement": "91516 ABS 610f", "setting": "[1]; nisin A 1.38 μg/g (tube A4)", "result": 1.334}, {"measurement": "91516 ABS 610f", "setting": "[1]; nisin A 3.08 μg/g (tube A5)", "result": 0.911}, {"measurement": "91516 ABS 610f", "setting": "[1]; nisin A 5.97 μg/g (tube A6)", "result": 0.536}, {"measurement": "91516 ABS 610f", "setting": "[1]; nisin A 8.86 μg/g (tube A7)", "result": 0.403}, {"measurement": "91516 ABS 610f", "setting": "[1]; nisin A 11.87 μg/g (tube A8)", "result": 0.361}, {"measurement": "Corrected ABS 610rs", "setting": "[1]; nisin A 0.33 μg/g (tube A2)", "result": 1.106}, {"measurement": "Corrected ABS 610rs", "setting": "[1]; nisin A 0.68 μg/g (tube A3)", "result": 1.063}, {"measurement": "Corrected ABS 610rs", "setting": "[1]; nisin A 1.38 μg/g (tube A4)", "result": 0.868}, {"measurement": "Corrected ABS 610rs", "setting": "[1]; nisin A 3.08 μg/g (tube A5)", "result": 0.473}, {"measurement": "Corrected ABS 610rs", "setting": "[1]; nisin A 5.97 μg/g (tube A6)", "result": 0.116}, {"measurement": "Corrected ABS 610rs", "setting": "[1]; nisin A 8.86 μg/g (tube A7)", "result": 0.001}, {"measurement": "Corrected ABS 610rs", "setting": "[1]; nisin A 11.87 μg/g (tube A8)", "result": 0.001}, {"measurement": "Maltotriose in the fermentation media", "setting": "[2]; nisin A 0.33 μg/g (tube A2)", "result": 0.312, "unit": "%/brix"}, {"measurement": "ethanol in the fermentation media", "setting": "[2]; nisin A 0.33 μg/g (tube A2)", "result": 0.068, "unit": "%/brix"}, {"measurement": "formic acid in the fermentation media", "setting": "[2]; nisin A 0.33 μg/g (tube A2)", "result": 0.263, "unit": "%/brix"}, {"measurement": "fructose in the fermentation media", "setting": "[2]; nisin A 0.33 μg/g (tube A2)", "result": 0.000, "unit": "%/brix"}, {"measurement": "glucose in the fermentation media", "setting": "[2]; nisin A 0.33 μg/g (tube A2)", "result": 23.122, "unit": "%/brix"}, {"measurement": "glycerol in the fermentation media", "setting": "[2]; nisin A 0.33 μg/g (tube A2)", "result": 0.292, "unit": "%/brix"}, {"measurement": "lactic acid in the fermentation media", "setting": "[2]; nisin A 0.33 μg/g (tube A2)", "result": 6.884, "unit": "%/brix"}, {"measurement": "maltose in the fermentation media", "setting": "[2]; nisin A 0.33 μg/g (tube A2)", "result": 0.581, "unit": "%/brix"}, {"measurement": "acetic acid in the fermentation media", "setting": "[2]; nisin A 0.33 μg/g (tube A2)", "result": 7.967, "unit": "%/brix"}, {"measurement": "Maltotriose in the fermentation media", "setting": "[2]; nisin A 1.38 μg/g (tube A4)", "result": 0.298, "unit": "%/brix"}, {"measurement": "ethanol in the fermentation media", "setting": "[2]; nisin A 1.38 μg/g (tube A4)", "result": 0.062, "unit": "%/brix"}, {"measurement": "formic acid in the fermentation media", "setting": "[2]; nisin A 1.38 μg/g (tube A4)", "result": 0.282, "unit": "%/brix"}, {"measurement": "fructose in the fermentation media", "setting": "[2]; nisin A 1.38 μg/g (tube A4)", "result": 0.000, "unit": "%/brix"}, {"measurement": "glucose in the fermentation media", "setting": "[2]; nisin A 1.38 μg/g (tube A4)", "result": 24.138, "unit": "%/brix"}, {"measurement": "glycerol in the fermentation media", "setting": "[2]; nisin A 1.38 μg/g (tube A4)", "result": 0.319, "unit": "%/brix"}, {"measurement": "lactic acid in the fermentation media", "setting": "[2]; nisin A 1.38 μg/g (tube A4)", "result": 5.496, "unit": "%/brix"}, {"measurement": "maltose in the fermentation media", "setting": "[2]; nisin A 1.38 μg/g (tube A4)", "result": 0.815, "unit": "%/brix"}, {"measurement": "acetic acid in the fermentation media", "setting": "[2]; nisin A 1.38 μg/g (tube A4)", "result": 8.219, "unit": "%/brix"}, {"measurement": "Maltotriose in the fermentation media", "setting": "[2]; nisin A 3.08 μg/g (tube A5)", "result": 0.276, "unit": "%/brix"}, {"measurement": "ethanol in the fermentation media", "setting": "[2]; nisin A 3.08 μg/g (tube A5)", "result": 0.094, "unit": "%/brix"}, {"measurement": "formic acid in the fermentation media", "setting": "[2]; nisin A 3.08 μg/g (tube A5)", "result": 0.407, "unit": "%/brix"}, {"measurement": "fructose in the fermentation media", "setting": "[2]; nisin A 3.08 μg/g (tube A5)", "result": 0.000, "unit": "%/brix"}, {"measurement": "glucose in the fermentation media", "setting": "[2]; nisin A 3.08 μg/g (tube A5)", "result": 24.698, "unit": "%/brix"}, {"measurement": "glycerol in the fermentation media", "setting": "[2]; nisin A 3.08 μg/g (tube A5)", "result": 0.350, "unit": "%/brix"}, {"measurement": "lactic acid in the fermentation media", "setting": "[2]; nisin A 3.08 μg/g (tube A5)", "result": 4.672, "unit": "%/brix"}, {"measurement": "maltose in the fermentation media", "setting": "[2]; nisin A 3.08 μg/g (tube A5)", "result": 0.598, "unit": "%/brix"}, {"measurement": "acetic acid in the fermentation media", "setting": "[2]; nisin A 3.08 μg/g (tube A5)", "result": 8.296, "unit": "%/brix"}, {"measurement": "Maltotriose in the fermentation media", "setting": "[2]; nisin A 5.97 μg/g (tube A6)", "result": 0.288, "unit": "%/brix"}, {"measurement": "ethanol in the fermentation media", "setting": "[2]; nisin A 5.97 μg/g (tube A6)", "result": 0.057, "unit": "%/brix"}, {"measurement": "formic acid in the fermentation media", "setting": "[2]; nisin A 5.97 μg/g (tube A6)", "result": 0.280, "unit": "%/brix"}, {"measurement": "fructose in the fermentation media", "setting": "[2]; nisin A 5.97 μg/g (tube A6)", "result": 0.000, "unit": "%/brix"}, {"measurement": "glucose in the fermentation media", "setting": "[2]; nisin A 5.97 μg/g (tube A6)", "result": 25.304, "unit": "%/brix"}, {"measurement": "glycerol in the fermentation media", "setting": "[2]; nisin A 5.97 μg/g (tube A6)", "result": 0.328, "unit": "%/brix"}, {"measurement": "lactic acid in the fermentation media", "setting": "[2]; nisin A 5.97 μg/g (tube A6)", "result": 2.707, "unit": "%/brix"}, {"measurement": "maltose in the fermentation media", "setting": "[2]; nisin A 5.97 μg/g (tube A6)", "result": 0.941, "unit": "%/brix"}, {"measurement": "acetic acid in the fermentation media", "setting": "[2]; nisin A 5.97 μg/g (tube A6)", "result": 8.143, "unit": "%/brix"}, {"measurement": "Maltotriose in the fermentation media", "setting": "[2]; nisin A 8.86 μg/g (tube A7)", "result": 0.419, "unit": "%/brix"}, {"measurement": "ethanol in the fermentation media", "setting": "[2]; nisin A 8.86 μg/g (tube A7)", "result": 0.055, "unit": "%/brix"}, {"measurement": "formic acid in the fermentation media", "setting": "[2]; nisin A 8.86 μg/g (tube A7)", "result": 0.234, "unit": "%/brix"}, {"measurement": "fructose in the fermentation media", "setting": "[2]; nisin A 8.86 μg/g (tube A7)", "result": 0.000, "unit": "%/brix"}, {"measurement": "glucose in the fermentation media", "setting": "[2]; nisin A 8.86 μg/g (tube A7)", "result": 25.444, "unit": "%/brix"}, {"measurement": "glycerol in the fermentation media", "setting": "[2]; nisin A 8.86 μg/g (tube A7)", "result": 0.299, "unit": "%/brix"}, {"measurement": "lactic acid in the fermentation media", "setting": "[2]; nisin A 8.86 μg/g (tube A7)", "result": 1.521, "unit": "%/brix"}, {"measurement": "maltose in the fermentation media", "setting": "[2]; nisin A 8.86 μg/g (tube A7)", "result": 0.775, "unit": "%/brix"}, {"measurement": "acetic acid in the fermentation media", "setting": "[2]; nisin A 8.86 μg/g (tube A7)", "result": 7.899, "unit": "%/brix"}, {"measurement": "Maltotriose in the fermentation media", "setting": "[2]; nisin A 11.87 μg/g (tube A8)", "result": 0.305, "unit": "%/brix"}, {"measurement": "ethanol in the fermentation media", "setting": "[2]; nisin A 11.87 μg/g (tube A8)", "result": 0.071, "unit": "%/brix"}, {"measurement": "formic acid in the fermentation media", "setting": "[2]; nisin A 11.87 μg/g (tube A8)", "result": 0.233, "unit": "%/brix"}, {"measurement": "fructose in the fermentation media", "setting": "[2]; nisin A 11.87 μg/g (tube A8)", "result": 0.000, "unit": "%/brix"}, {"measurement": "glucose in the fermentation media", "setting": "[2]; nisin A 11.87 μg/g (tube A8)", "result": 25.537, "unit": "%/brix"}, {"measurement": "glycerol in the fermentation media", "setting": "[2]; nisin A 11.87 μg/g (tube A8)", "result": 0.301, "unit": "%/brix"}, {"measurement": "lactic acid in the fermentation media", "setting": "[2]; nisin A 11.87 μg/g (tube A8)", "result": 1.579, "unit": "%/brix"}, {"measurement": "maltose in the fermentation media", "setting": "[2]; nisin A 11.87 μg/g (tube A8)", "result": 0.739, "unit": "%/brix"}, {"measurement": "acetic acid in the fermentation media", "setting": "[2]; nisin A 11.87 μg/g (tube A8)", "result": 8.091, "unit": "%/brix"}]}
